The nature of this series: Human HepG2 cell viability assay in 384 well format. In kind it is toxicity, cell-based. Also noted: dose 125 nL, time 70.5 hour; concentration not given beside the values. Particulars: HepG2 cells, read-out: Inhibition.

With `OCCN(Cc1nc(-c2ccc3c(c2)OCO3)no1)Cc1cccs1`, the cytotoxicity at 70.5 h is -16.8%.
For `Nc1ccnc(N2CCC(Cc3ccccc3Cl)(C(=O)O)CC2)n1`, the cytotoxicity at 70.5 h is 1.15%.
For `COC(=O)c1ccc(-c2noc(CN(CCO)Cc3cccs3)n2)cc1`, the cytotoxicity at 70.5 h is -10.2%.
In the case of `COCCn1ccnc1C1CCCN(c2ncnc3c(C)csc23)C1` (stereo unspecified) it was 23.8%; in that of `Cc1ccc(C(=O)N2CC(c3cccnc3)C2)cc1N1CCNC1=O`, -7.03%; in that of `CN(C)[C@H]1CCCCN(C(=O)COCc2nc3cc(F)ccc3[nH]2)C1`, 15%.
Take `COCC(=O)N1CCCN(Cc2c(C)nc3ccc(Cl)cn23)CC1`: the cytotoxicity at 70.5 h came to 2.35%.
In the case of `CN1CCc2[nH]nc(C(=O)N3CCC4(CCCO4)CC3)c2C1` it was -0.824%.
`COc1ccccc1OC1CCN(C(=O)c2c[nH]c(=O)[nH]c2=O)CC1`: the cytotoxicity at 70.5 h is -4.88%.
Take `O=C(COCC(F)(F)C(F)F)N1CCC(c2ncc[nH]2)CC1`: the cytotoxicity at 70.5 h is -5.35%.
In the case of `COCCN1CC(C(=O)N(CCN(C)C)Cc2ccc(C)s2)CC1=O` (stereo unspecified) it was -4.05%; in that of `CN1CCN2CCN(Cc3cnc(NCc4ccccc4)nc3)CC2C1` (stereo unspecified), 24%; in that of `CCC(CC)n1nc(C)cc1NC(=O)C1CCCO1` (stereo unspecified), -8.67%.
The same measure for `CC(NCc1cc(O)c2cccc(F)c2n1)c1ccc(S(C)(=O)=O)cc1` (stereo unspecified): -12.6%; for `Cn1cc(CN2CC[C@@H]3[C@@H](CCC(=O)N3CCc3ccccc3)C2)cn1`: -0.863%.
With `Cc1cnc(C(=O)N2CCN(C(=O)C(C)C)[C@@H]3CS(=O)(=O)C[C@@H]32)cn1`, the cytotoxicity at 70.5 h was -6.02%.
For `CCNCCOc1ccc(-c2cc(N)nc3[nH]ccc23)cc1`, the cytotoxicity at 70.5 h was -10.1%.
On to `CC(=O)NCCC(=O)N(C/C=C/c1ccccc1)CCO`, for which the cytotoxicity at 70.5 h was determined as 24%.
Turning to `COc1cc(N2CCCC(c3nccn3Cc3cccnc3)C2)ncn1` (stereo unspecified), the cytotoxicity at 70.5 h is -14.5%.
Take `CSc1nnc(CC2CCN(C(=O)Cc3ccncc3)CC2)n1C`: the cytotoxicity at 70.5 h was -16.8%.
Consider `Cc1nnc(CNC(=O)[C@@H]2C[C@H](NC(=O)C(C)(C)C)CN2C)[nH]1`, for which the cytotoxicity at 70.5 h is -9.08%.
In the case of `O=C(O)c1ccccc1-c1c(-c2ccccc2)ncn1C[C@H]1CCCN1` it was -3.04%; in that of `CCN1CC(CN(C)Cc2nc(-c3ccc(C)o3)oc2C)CC1=O` (stereo unspecified), -6.14%; in that of `Cc1cc(C(=O)N2CC(O)CO2)c2cccc(C)c2n1` (stereo unspecified), -13%.
With `CC(C)Oc1ccc2c(NC(=O)[C@H](C)O)nn(CC(F)(F)F)c2c1`, the cytotoxicity at 70.5 h was -16.3%.
`COCC[C@]1(O)CCN(Cc2ccccn2)C[C@H]1C`: the cytotoxicity at 70.5 h was -0.199%.
As for `CN1CCCC(CCC(=O)NCCc2nnc(N)s2)C1` (stereo unspecified), the cytotoxicity at 70.5 h turned out to be 9.25%.
As to `CCCc1nc(N(C)CCN2CCCCCC2)c2cnn(C)c2n1`, the cytotoxicity at 70.5 h is -11%.
In the case of `CC(C)c1nccn1C(C)C(=O)NC1CCN(S(C)(=O)=O)CC1` (stereo unspecified) it was 3.51%; in that of `O=C(O)[C@@H]1CN(C(=O)c2ccc3nccnc3c2)C[C@H]1c1ccncc1`, -7.07%; in that of `CNS(=O)(=O)c1ccc(CN(C)Cc2nc3ccc(F)cc3[nH]2)cc1`, -4.95%.
As to `CC(=O)N1CCCN(c2nccc(-c3c(C)nn(C)c3C)n2)CC1`, the cytotoxicity at 70.5 h was -3.87%.
Regarding `CCNc1nc(C)c(C(=O)N(C)Cc2nc(-c3ccncc3)no2)s1`, the cytotoxicity at 70.5 h was 1.19%.
In the case of `CCN(CC)C1CCN(c2nccc(C3CCCC3)n2)C1` (stereo unspecified) it was -13.5%.
Consider `O=C(c1ccc2cccc(F)c2n1)N1CCN(CCn2cncn2)CC1`, for which the cytotoxicity at 70.5 h was -9.3%.
For the compound `N#Cc1ccccc1CN1CCC(c2nccn2CC2CCC2)CC1`, the cytotoxicity at 70.5 h is -1.95%.
Regarding `CCCc1nnc(NC2CCN(CCO)CC2)o1`, the cytotoxicity at 70.5 h is -6.74%.
Regarding `Cc1nc(N)cc(NCc2csc(N(C)C)n2)n1`, the cytotoxicity at 70.5 h was -4.3%.
With `CCc1nc(Cn2nc(C3CCNCC3)n(-c3ccccc3)c2=O)cs1`, the cytotoxicity at 70.5 h is -5.68%.
Take `Cc1nn(C)c2nc(NC(C)c3n[nH]c(=O)[nH]3)sc12` (stereo unspecified): the cytotoxicity at 70.5 h was -10.8%.
Turning to `Cc1ccc(OC2(C(=O)O)CCN(C(=O)CCc3ccco3)CC2)cn1`, the cytotoxicity at 70.5 h was -0.99%.
As for `CC(C)N1CC2(CCCN(c3ccnc4ccccc34)C2)CCC1=O` (stereo unspecified), the cytotoxicity at 70.5 h is -0.494%.
For the compound `CCN(CC)CCc1nc2c([nH]1)CC(c1ccc(Cl)cc1)CNC2=O` (stereo unspecified), the cytotoxicity at 70.5 h is -3.81%.
`CC(C)c1nnc(CN2CCCC3(CC2)CN(C)C(=O)O3)o1` (stereo unspecified): the cytotoxicity at 70.5 h is -3.73%.
On to `Cc1nc(N2CCC3(CCCN(CC4CC4)C3=O)C2)c2sccc2n1` (stereo unspecified), for which the cytotoxicity at 70.5 h is 0.2%.
As to `Cc1cc(C)nc(CN(C)C(=O)c2cccc(CCC(C)(C)O)c2)c1`, the cytotoxicity at 70.5 h was -4.1%.
The same measure for `O=C(CCNCc1cc(O)c2cc(F)ccc2n1)N1CCCC1`: -8.32%.
For `CN(C)C(C(=O)NC1(CO)CCCC1)c1ccc(F)cc1` (stereo unspecified), the cytotoxicity at 70.5 h was 6.65%.
Regarding `CCCOc1ccccc1CCCNc1ncnc2oc(C)nc12`, the cytotoxicity at 70.5 h is -7.16%.
For `CCCNC(=O)N1CCc2ccc(S(=O)(=O)N3CCCC3)cc2C1`, the cytotoxicity at 70.5 h is -10.1%.
Consider `CNc1nc2c(c(C(=O)N3CCCC3)n1)CN(C(=O)CCSC)CC2`, for which the cytotoxicity at 70.5 h is -1.55%.
Consider `CSCc1noc(-c2ccc(C)c(N3CCNC3=O)c2)n1`, for which the cytotoxicity at 70.5 h was -9.43%.
Regarding `Cn1cnnc1C1CCCN(Cc2nc(Cc3ccccc3)no2)C1` (stereo unspecified), the cytotoxicity at 70.5 h was found to be 13%.
As for `CN(C)C(=O)c1nc(CN2CC(c3ccccc3)CC2=O)no1` (stereo unspecified), the cytotoxicity at 70.5 h was 10.4%.
As for `Cc1cc(CC(C)NC2CCN(CC(C)C)CC2)[nH]n1` (stereo unspecified), the cytotoxicity at 70.5 h was -10.6%.
In the case of `N[C@@H]1CC[C@H](C(=O)NCCn2cc(Cl)cn2)C1`, the cytotoxicity at 70.5 h came to 3.97%.
On to `COc1cccc2c1OCC(C(=O)NCc1ncc3c(n1)CCC3)C2` (stereo unspecified), for which the cytotoxicity at 70.5 h was -9.1%.
The same measure for `CCc1nnc(CN(CC)C(=O)C2CC(=O)N(Cc3cccnc3)C2)o1` (stereo unspecified): -11.4%; for `COc1ccc(NC2(C(=O)N3CCCn4cncc4C3)CCCC2)cc1`: -13%.
Take `CN(C)CCO[C@H]1C[C@@H](O)C12CCN(c1nccc3ccccc13)CC2`: the cytotoxicity at 70.5 h is -10.3%.
`Cc1nn(C)cc1-c1ccnc(NCCN)n1`: the cytotoxicity at 70.5 h is -8.28%.
With `Cc1nc[nH]c1CN1CCN(C(=O)C2(C)CC2)[C@H]2CS(=O)(=O)C[C@H]21`, the cytotoxicity at 70.5 h is -11.5%.
In the case of `Cc1ccc(F)c(C(=O)N2C[C@@H](C(=O)O)[C@H](c3ccncc3)C2)c1Cl`, the cytotoxicity at 70.5 h is -8.75%.
For `COc1cccc(-c2noc(-c3ccc(NCC(C)O)nc3)n2)c1OC` (stereo unspecified), the cytotoxicity at 70.5 h was -0.152%.
Take `O=C(O)COc1ccc(Cl)cc1CN1CCC2(CCNCC2)CC1`: the cytotoxicity at 70.5 h is -11.2%.
In the case of `COc1ncccc1-c1nc(-c2ccccn2)nn1C1CCS(=O)(=O)C1` (stereo unspecified), the cytotoxicity at 70.5 h was -7.2%.
For the compound `Cc1nccnc1-n1c(COCC(=O)O)nc2c(C)cccc21`, the cytotoxicity at 70.5 h was -1.07%.
Regarding `COCc1noc(CN2C[C@H](NS(C)(=O)=O)[C@@H](C3CC3)C2)n1`, the cytotoxicity at 70.5 h is -11%.
Turning to `Cc1nc(C)c(C(=O)N2CCCC(C(=O)c3nccn3C)C2)s1` (stereo unspecified), the cytotoxicity at 70.5 h is -2.4%.
As to `COCCC1CN(Cc2cn(CCC(N)=O)c3ccccc23)CCO1` (stereo unspecified), the cytotoxicity at 70.5 h was -5.24%.
In the case of `CN1CC(c2ccccc2)CC12CCN(C(=O)c1ccc(Cl)cc1)CC2` (stereo unspecified) it was 7.42%.
As to `CN1CC2(CCN(c3ncnc4c3CCNC4)CC2)OC1=O`, the cytotoxicity at 70.5 h is -9.3%.
The same measure for `CCC(C)N(Cc1ccncc1)Cc1ccc(-n2cccn2)cc1` (stereo unspecified): -5.94%; for `Cc1cc(C(=O)NC2CCCc3c2cnn3-c2cccc(C)c2C)[nH]n1` (stereo unspecified): -3.11%; for `CCn1c(N)nc2cc(C(=O)N(C)Cc3cc(C(C)(C)C)n[nH]3)cnc21`: -5.41%.
`CCN(CC)S(=O)(=O)N1CCCC(c2nccn2Cc2ccncc2)C1` (stereo unspecified): the cytotoxicity at 70.5 h was 8.67%.
`Cc1cc2c(=O)n(CCSc3ncn[nH]3)cnc2s1`: the cytotoxicity at 70.5 h was -7.44%.
As for `COc1ccccc1S(=O)(=O)N1CCC2(CC1)OCCCC2O` (stereo unspecified), the cytotoxicity at 70.5 h is -6.84%.
For the compound `COC(=O)N1CCN(c2ncnc3nc(C)cc(C)c23)CC1`, the cytotoxicity at 70.5 h is -4.12%.
Take `CCN1CCC(N2CCN(C)C3(CCC(=O)N(CCOC)CC3)C2)CC1` (stereo unspecified): the cytotoxicity at 70.5 h was -9.42%.
The same measure for `CN(Cc1cccc(C(=O)Nc2ccnn2C)c1)CC1(C)COC1`: 0.785%.
For `CN1CCC(Cc2noc(-c3cccc4c3OCC4)n2)CC1`, the cytotoxicity at 70.5 h was -8.69%.
Take `Cc1[nH]c2c(C)ccc(C)c2c1CC(=O)NCCNc1cccnc1`: the cytotoxicity at 70.5 h is 27%.
Regarding `CNc1nc(C)cc(NC2CCCN(C3Cc4ccccc4C3)C2)n1` (stereo unspecified), the cytotoxicity at 70.5 h worked out at 14.9%.
In the case of `Clc1cc(N2CCN(C3CCOCC3)CC2)nc2[nH]ccc12`, the cytotoxicity at 70.5 h is -0.399%.
For the compound `CC(C)c1cc(N2CCC(NS(C)(=O)=O)CC2)n2nccc2n1`, the cytotoxicity at 70.5 h is -2.38%.
For `Cc1cc(N2CCC3(CCC(=O)N(CCCO)C3)CC2)nc(N(C)C)n1`, the cytotoxicity at 70.5 h is -2.5%.
The same measure for `COCc1nc(CN2CC(C)(c3ccccc3)CCC2=O)no1` (stereo unspecified): -6.99%.
Regarding `COc1ccc(C(C)C)cc1C1CC(=O)NCc2nc(N(C)C)sc21` (stereo unspecified), the cytotoxicity at 70.5 h was determined as 13.4%.
In the case of `CCN(C)C[C@@H]1CN(Cc2cccc(O)c2)C[C@@H]1CO`, the cytotoxicity at 70.5 h is -11.8%.
For the compound `c1cc2c(cc1CN1CCC(Cc3noc(C4CC4)n3)CC1)OCCO2`, the cytotoxicity at 70.5 h was determined as 20.2%.
`Fc1cnccc1CN1CCC2(CCNCC2)C1`: the cytotoxicity at 70.5 h is -10.4%.
In the case of `Cc1cnn(CC(=O)N2CCC3(CCC(=O)N(CCCO)C3)CC2)c1`, the cytotoxicity at 70.5 h was found to be 0.675%.
As for `CC(C)=CCN1C[C@H]2CC[C@@H]1CN(C(=O)c1ccc3[nH]cnc3c1)C2`, the cytotoxicity at 70.5 h is 3.14%.
For `CN(C)CCCN(C)c1nccc(N2CCN[C@H]3CS(=O)(=O)C[C@H]32)n1`, the cytotoxicity at 70.5 h worked out at 23.2%.
In the case of `CCOC(=O)CC1CCCCN1C(=O)c1cc(C)on1` (stereo unspecified), the cytotoxicity at 70.5 h was -8.65%.

(Values after ChEMBL document CHEMBL3507680, “University of Dundee, Gates Library screen for HepG2 cell viability”.)
